As usually defined, the IC50 is the concentration at which inhibition is half-maximal. Read a low IC50 as greater potency.

Molecules are shown by their SMILES.

Chain of EGFR (P00533 whole entry, looked up): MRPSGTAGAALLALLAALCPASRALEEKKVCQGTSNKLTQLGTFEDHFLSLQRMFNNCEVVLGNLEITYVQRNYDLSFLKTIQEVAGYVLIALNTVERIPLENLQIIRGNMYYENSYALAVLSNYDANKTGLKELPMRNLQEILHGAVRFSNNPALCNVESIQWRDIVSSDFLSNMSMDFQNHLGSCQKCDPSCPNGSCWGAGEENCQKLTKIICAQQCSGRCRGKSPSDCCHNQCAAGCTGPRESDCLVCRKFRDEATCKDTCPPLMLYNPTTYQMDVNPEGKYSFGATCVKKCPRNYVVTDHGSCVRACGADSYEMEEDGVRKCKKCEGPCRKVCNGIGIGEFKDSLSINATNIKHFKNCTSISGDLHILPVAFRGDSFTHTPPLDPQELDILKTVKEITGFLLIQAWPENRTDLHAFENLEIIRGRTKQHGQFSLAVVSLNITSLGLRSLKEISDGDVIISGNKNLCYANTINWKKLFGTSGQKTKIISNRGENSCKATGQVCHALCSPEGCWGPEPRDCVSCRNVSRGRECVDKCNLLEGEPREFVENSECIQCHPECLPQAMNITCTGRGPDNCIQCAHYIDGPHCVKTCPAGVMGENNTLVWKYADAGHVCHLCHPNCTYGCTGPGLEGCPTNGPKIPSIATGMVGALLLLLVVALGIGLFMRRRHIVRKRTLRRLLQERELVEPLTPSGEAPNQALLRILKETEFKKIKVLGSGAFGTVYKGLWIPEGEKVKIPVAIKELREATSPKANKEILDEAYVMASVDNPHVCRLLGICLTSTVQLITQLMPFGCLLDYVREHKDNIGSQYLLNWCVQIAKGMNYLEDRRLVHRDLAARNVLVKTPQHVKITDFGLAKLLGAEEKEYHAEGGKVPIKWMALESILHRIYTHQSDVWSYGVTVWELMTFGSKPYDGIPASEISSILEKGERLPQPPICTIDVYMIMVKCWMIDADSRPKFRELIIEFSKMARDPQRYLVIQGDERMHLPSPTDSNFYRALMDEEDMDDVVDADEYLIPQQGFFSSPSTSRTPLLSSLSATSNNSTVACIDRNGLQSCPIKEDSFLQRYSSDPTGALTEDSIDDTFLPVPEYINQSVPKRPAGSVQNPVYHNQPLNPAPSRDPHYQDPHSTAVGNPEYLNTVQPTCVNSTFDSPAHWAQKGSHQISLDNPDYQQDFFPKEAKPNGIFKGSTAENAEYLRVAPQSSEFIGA

The experiment addresses EGFR (UniProt P00533).
In turn, `C=CC(=O)NCCC(=O)Nc1cc2c(Nc3ccc(Br)cc3F)ncnc2cc1OCC1CCN(C)CC1` yielded an IC50 of 80 nM. Turning to `C=CC(=O)NCCCNc1cc2c(Nc3ccc(Br)cc3F)ncnc2cc1OCC1CCN(C)CC1`, the IC50 came out at 11 nM.

The molecule `C=CC(=O)Nc1cc2c(Nc3ccc(Br)cc3F)ncnc2cc1OCCOC(=O)CC(=O)O` gave an IC50 of 956 nM. The result for `C=CC(=O)Nc1cc2c(Nc3ccc(Br)cc3F)ncnc2cc1OCCNC(=O)CCC` reads 32 nM; that for `C=CC(=O)Nc1cc2c(Nc3ccc(Br)cc3F)ncnc2cc1OCCNC(=O)CCCN(C)C`, 21 nM; that for `C=CC(=O)Nc1cc2c(Nc3ccc(Br)c(F)c3F)ncnc2cc1OCCNC(=O)CCCN(C)C`, 568 nM.

Molecule `C=CC(=O)NCCCNc1cc2c(Nc3ccc(F)c(F)c3F)ncnc2cc1OCC1CCN(C)CC1` yielded an IC50 of 12 nM. In the case of `C=CC(=O)NCCCNc1cc2c(Nc3ccc(Br)cc3F)ncnc2cc1OCC1CCN(C(=O)C=C)CC1` it was 68 nM. In the case of `C=CC(=O)NCCNc1cc2c(Nc3ccc(Br)cc3F)ncnc2cc1OCC1CCN(C)CC1` it was 76 nM; in that of `C=CC(=O)Nc1cc2c(Nc3ccc(Br)cc3F)ncnc2cc1OCCNC(=O)CC(C)N(C)C` (stereo not given), 325 nM. In the case of `C=CC(=O)NCCCNc1cc2c(Nc3ccc(Br)cc3F)ncnc2cc1OCC1CCN(C(=O)CC)CC1`, the IC50 came out at 56 nM.

Molecule `C=CC(=O)Nc1cc2c(Nc3ccc(Br)cc3F)ncnc2cc1OCCOC(=O)CC(=O)OCC` returned an IC50 of 246 nM.

With `C=CC(=O)Nc1cc2c(Nc3ccc(Br)c(Cl)c3F)ncnc2cc1OCCNC(=O)CCCN(C)C`, the IC50 is 28 nM. For the molecule `C=CC(=O)Nc1cc2c(Nc3ccc(Br)cc3F)ncnc2cc1OCC(=O)NCCN(C)C`, the IC50 was found to be 652 nM. The result for `C=CC(=O)NCCCNc1cc2c(Nc3ccc(Br)cc3F)ncnc2cc1OCC1CCN(C(C)=O)CC1` reads 35 nM.

The values above are taken from the Kinase Knowledgebase extract (Sharma et al. 2016).
